Test results as given in US20080200405A1, “Drug Resistance Reversal In Neoplastic Disease” (priority 2007, published 2008).
Structures can show the parent of a compound that is named as a salt.

Columns and labels:
[1] = tested on: Doxorubicin resistant SaOS2 cells; test: Cancer cell viability (MTT) in the presence or absence of doxorubicin; assay type: cell-based, human; conditions: compound 50 ug/mL, 3 days
Lipid peroxidation = Lipid peroxidation inhibition (method of Ohkawa); assay type: biochemical; conditions: 1 uM
TNFα = test: Measurement of LPS Induced-TNFα in THP-1 Cells; assay type: cell-based, human; conditions: Homo sapiens, THP-1; read-out: TNFalpha IC50
Procedure: The lipid peroxidation assay method of Ohkawa, H.; Ohishi, N.; Yaki, K. Anal. Biochem. 1979, 95, 351 was used to evaluate […]. […] […] Cells were collected and spun at 1500 g for 10 minutes. Supernatant was collected and analyzed for TNFα.
Mean Percent Inhibition of TNF-alpha by compounds of the present invention is set forth in Table B. TNF-alpha inhibition data is set forth in Table B-1. OT-551 was used in both native form and in the form of nanoparticles. […] Other nitrogenous heterocyclic species of the invention are expected to show similar improvement in efficacy when disposed in nanoparticulate form.

Row | SMILES | IC50 (TNFα) [µM] | melting point | Mean OD (×10^−3), MTT viability ([1]; Dox. 10^−6 M (+)) | Mean OD (×10^−3), MTT viability ([1]; absence of Dox. (−)) | % Lipid Peroxidation inhibition (at 1 uM) (Lipid peroxidation) [%]
1 | CC1(C)CC(C(N)=O)C(C)(C)N1O (centres unmarked) [Compound 24, 1-hydroxy-2,2,5,5-tetramethylpyrrolidine-3-carboxamide] | ≥ 100 | – | 362.00 ×10^−3 | 1166.50 ×10^−3 | 37.0
2 | Cc1cc(O)c(O)cc1C(=O)NC1CC(C)(C)N(O)C(C)(C)C1.Cl [Compound 27, 4,5-dihydroxy-2-methyl-N-(1-hydroxy-2,2,6,6-tetramethylpiperidin-4-yl)benzamide hydrogen chloride] | ≥ 100 | – | 403.75 ×10^−3 | 1038.33 ×10^−3 | 53.4
3 | CCOCC(C)(C)N(O)C(C)(C)COCC [Compound 40, N-Hydroxyl-N,N-bis(1-ethoxy-2-methylpropan-2-yl)amine hydrochloride] | ≥ 100 | – | 338.75 ×10^−3 | 1177.25 ×10^−3 | 46.8
4 | CC1(C)CC(Oc2nsnc2C#N)CC(C)(C)N1O [Compound 45, hydrochloride] | 30 | – | 276.50 ×10^−3 | 1063.33 ×10^−3 | 91.5

Second part, led by results:

Row | IC50 (TNFα) [µM] | melting point | SMILES | Mean OD (×10^−3), MTT viability ([1]; Dox. 10^−6 M (+)) | Mean OD (×10^−3), MTT viability ([1]; absence of Dox. (−)) | % Lipid Peroxidation inhibition (at 1 uM) (Lipid peroxidation) [%]
5 | 45.5 | – | CC(C)(C)c1cc(NC(=O)C2CC(C)(C)N(O)C(C)(C)C2)cc(C(C)(C)C)c1O.Cl [Compound 29, N-(3,5-di-tert-butyl-4-hydroxyphenyl)-1-hydroxy-2,2,6,6-tetramethylpiperidine-4-carboxamide hydrogen chloride] | 105.75 ×10^−3 | 1328.00 ×10^−3 | 92.3
6 | 3.8 | – | CC1(C)C=CCC(C)(C)N1O.Cl [Compound 35, 1-hydroxy-1,2,3,6-tetrahydro-2,2,6,6-tetramethylpyridine hydrogen chloride] | 352.75 ×10^−3 | 1128.00 ×10^−3 | 64.4
7 | 1 | 201.7 °C (dec.) | CC1(C)CC(O)(c2ccccc2)CC(C)(C)N1O.Cl [Compound 42, 1,4-Dihydroxy-4-phenyl-2,2,6,6-tetramethylpiperidine hydrochloride] | 311.00 ×10^−3 | 1068.67 ×10^−3 | 83.8
8 | ≥ 100 | 181.5 °C (dec.) | CC1(C)CC(OCc2ccccc2)CC(C)(C)N1O.Cl [Compound 43, 4-Benzyloxy-1-hydroxy-2,2,6,6-tetramethylpiperidine hydrochloride] | 324.67 ×10^−3 | 1159.00 ×10^−3 | 88.5
9 | 1 | – | COc1ccc(C2=C(c3cc(OC)c(OC)c(OC)c3)C(C)(C)N(O)C2(C)C)cc1C=O.Cl [Compound 46, 5-(2,5,-dihydro-4-(3,4,5-trimethoxyphenyl)-1-hydroxy-2,2,5,5-tetramethyl-1H-pyrrol-3-yl)-2-methoxybenzaldehyde hydrochloride] | 32.75 ×10^−3 | 79.00 ×10^−3 | 80.1
